According to patent US5760240A, “Taxoid synthesis” (The Scripps Research Institute, priority 1995, dated 1998):
pIC50: −log10 of the molar value.

How the values were obtained:
HT-29 = assay: Cytotoxicity against tumor cell lines: HT-29; format: cell-based; settings: Homo sapiens; cell line HT-29
Ovcar 3 = assay: Cytotoxicity against tumor cell lines: Ovcar 3; format: cell-based; settings: Homo sapiens; cell line Ovcar 3
UCLA-P3 = assay: Cytotoxicity against tumor cell lines: UCLA-P3; format: cell-based; settings: Homo sapiens, UCLA P-3; cell line UCLA-P3
A-549 = assay: Cytotoxicity against tumor cell lines: A-549; format: cell-based; settings: Homo sapiens, A549; cell line A-549
L-1210 = assay: Cytotoxicity against tumor cell lines: L-1210; format: cell-based; settings: Mus musculus, L1210; cell line L-1210
SIH-A = assay: Cytotoxicity against tumor cell lines: SIH-A; format: cell-based; settings: Homo sapiens, SiHa; cell line SIH-A
786-0 = assay: Cytotoxicity against tumor cell lines: 786-0; format: cell-based; settings: Homo sapiens; cell line 786-0
SK-Mel-28 = assay: Cytotoxicity against tumor cell lines: SK-Mel-28; format: cell-based; settings: Homo sapiens; cell line SK-Mel-28
SK-NH-SH = assay: Cytotoxicity against tumor cell lines: SK-NH-SH; format: cell-based; settings: cell line SK-NH-SH
BT-549 = assay: Cytotoxicity against tumor cell lines: BT-549; format: cell-based; settings: Homo sapiens; cell line BT-549
[1] = test system: a variety of tumor cell lines; assay: Cytotoxicity against a variety of tumor cell lines (in words); settings: 15 and 15' under the same conditions

Compound	pIC50 (HT-29)	pIC50 (Ovcar 3)	pIC50 (UCLA-P3)	pIC50 (A-549)	pIC50 (L-1210)	pIC50 (SIH-A)	pIC50 (786-0)	pIC50 (SK-Mel-28)	pIC50 (SK-NH-SH)	pIC50 (BT-549)	cytotoxicity against a variety of tumor cell lines [1]	cytotoxicity against a variety of tumor cell lines ([1]; listed as 15')
CC(=O)O[C@@H]1C2=C(C)[C@@H](OC(=O)[C@H](O)[C@@H](NC(=O)c3ccccc3)c3ccccc3)C[C@@](O)([C@@H](OC(=O)c3ccccc3)c3ccccc3[C@H]1OC(C)=O)C2(C)C [Compound 15]	6.89	6.55	6.53	6.19	5.95	5.89	5.71	5.57	5.31	5.28	significant cytotoxicity	essentially no cytotoxicity
CC(=O)O[C@H]1C(=O)[C@@]2(C)[C@H]([C@H](OC(=O)c3ccccc3)[C@]3(O)C[C@H](OC(=O)[C@H](O)[C@@H](NC(=O)c4ccccc4)c4ccccc4)C(C)=C1C3(C)C)[C@]1(OC(C)=O)CO[C@@H]1C[C@@H]2O [Taxol, reference compound]	7.29	9.21	8.19	–	8.15	–	5.66	6.92	9.21	9.30	–	–
